Patent US10851112B2, “Anti-HCMV virus compound” (MEDSHINE DISCOVERY INC., priority 2016, dated 2020)

Test system: US3-6-EGFP-HCMV-AD169 viruses
Assay: Fluorescence decay assay against human cytomegalovirus
Assay type: cell-based, human cytomegalovirus (HCMV)
Details: Human betaherpesvirus 5, AD169, MRC5, 240 h
Description: Fluorescence Decay Assay Against Human Cytomegalovirus
The antiviral activity of the compound against human cytomegalovirus (HCMV) was evaluated by determining the half maximal effective concentration (EC50) of the compound. The HCMV used in this assay was inserted with enhanced green fluorescent protein (EGFP) by gene recombination, so the viral replication in cells could be reflected by the expression level of GFP. The inhibitory activity of the compound on HCMV GFP expression was evaluated by determining the fluorescence intensity in the wells of different concentrations of the compound using a high content cell analysis platform Acumen eX3.
Fluorescence Decay Assay Against HCMV
MRC5 cells were inoculated into a black 96-well cell culture plate at a density of 20,000 cells per well. The plate was incubated overnight in a 37° C., 5% CO2 incubator. US3-6-EGFP-HCMV-AD169 viruses were added to the cell culture well at a certain MOI (0.003-0.1) and the plate was incubated for 3 hours in a 37° C., 5% CO2 incubator. After adsorption of viruses, the medium containing viruses was aspirated and 200 μL of cell culture medium containing different concentrations of the compound (4-fold dilution, 6 test concentrations) was added. The final concentration of DMSO in the medium was 1%. Virus control wells (with DMSO added, but no compound was added) and inhibition control wells (with a high concentration of control compound added) were set. The cell plate was incubated for 10 days in a 37° C., 5% CO2 incubator and the liquid was renewed on the 4th day and 7th day. After 10 days of culture, the fluorescence intensity was determined using a high content cell analysis platform Acumen eX3 (TTP LabTech). The original data was used for calculating the antiviral activity of the compound.
The inhibition % was imported into GraphPad Prism software for data processing to give a corresponding dose-response curve for the compound and the EC50 of the test compound was obtained.

SMILES	EC50 [nM]
COc1cccc(N2CCN(C3=Nc4c(csc4F)[C@@H](CC(=O)O)N3c3cc(C(F)(F)F)ccc3OC)CC2)c1 (single isomer, unassigned) [WX-075]	295
COc1cccc(N2CCN(C3=Nc4c(csc4F)[C@H](CC(=O)O)N3c3cc(C(F)(F)F)ccc3OC)CC2)c1 (single isomer, unassigned) [WX-076]	1
COc1cccc(N2CCN(C3=Nc4ccsc4[C@@H](CC(=O)O)N3c3cc(C(F)(F)F)ccc3OC)CC2)c1 (single isomer, unassigned) [WX-087]	> 1000
COc1ccc(C(F)(F)F)cc1N1C(N2CCC(F)(c3ccc(F)cc3)CC2)=Nc2ccsc2[C@H]1CC(=O)O (single isomer, unassigned) [WX-089]	> 1000
COc1ccc(C(F)(F)F)cc1N1C(N2CCC(F)(c3ccc(F)cc3)CC2)=Nc2ccsc2[C@@H]1CC(=O)O (single isomer, unassigned) [WX-090]	79
COc1cc(N2CCN(C3=Nc4c(csc4F)[C@H](CC(=O)O)N3c3cc(C(F)(F)F)ccc3OC)CC2)ccn1 (single isomer, unassigned) [WX-097]	1
COc1cc(N2CCN(C3=Nc4c(csc4F)[C@@H](CC(=O)O)N3c3cc(C(F)(F)F)ccc3OC)CC2)ccn1 (single isomer, unassigned) [WX-098]	31
COc1ccc(C(F)(F)F)cc1N1C(N2CCC(F)(c3ccc(F)cc3)CC2)=Nc2c(csc2F)[C@@H]1CC(=O)O (single isomer, unassigned) [WX-099]	24
COc1ccc(C(F)(F)F)cc1N1C(N2CCC(F)(c3ccc(F)cc3)CC2)=Nc2c(csc2F)[C@H]1CC(=O)O (single isomer, unassigned) [WX-100]	73
COc1cccc(N2CCN(C3=Nc4cc(Cl)sc4[C@@H](CC(=O)O)N3c3cc(C(F)(F)F)ccc3OC)CC2)c1 (single isomer, unassigned) [WX-106]	> 1000
COc1cccc(N2CCN(C3=Nc4cc(Cl)sc4[C@H](CC(=O)O)N3c3cc(C(F)(F)F)ccc3OC)CC2)c1 (single isomer, unassigned) [WX-107]	4
COc1cc(N2CCN(C3=Nc4ccsc4[C@@H](CC(=O)O)N3c3cc(C(F)(F)F)ccc3OC)CC2)ccn1 (single isomer, unassigned) [WX-108]	340
COc1ccc(C(F)(F)F)cc1N1C(N2CCN(c3ccc(F)cc3)CC2)=Nc2c(csc2F)[C@@H]1CC(=O)O (single isomer, unassigned) [WX-112]	1
COc1ccc(C(F)(F)F)cc1N1C(N2CCN(c3ccc(F)cc3)CC2)=Nc2c(csc2F)[C@H]1CC(=O)O (single isomer, unassigned) [WX-113]	107
COc1ccnc(N2CCN(C3=Nc4c(csc4F)[C@H](CC(=O)O)N3c3cc(C(F)(F)F)ccc3OC)C[C@H]2C)n1 (single isomer, unassigned) [WX-129]	14
COc1ccnc(N2CCN(C3=Nc4c(csc4F)[C@@H](CC(=O)O)N3c3cc(C(F)(F)F)ccc3OC)C[C@H]2C)n1 (single isomer, unassigned) [WX-130]	> 100
COc1cccc(N2CCN(C3=Nc4c(csc4F)[C@@H](CC(=O)O)N3c3cc(C(F)(F)F)ccc3OC)C[C@H]2C)c1 (single isomer, unassigned) [WX-131]	55
COc1cncc(N2CCN(C3=Nc4c(csc4F)[C@H](CC(=O)O)N3c3cc(C(F)(F)F)ccc3OC)C[C@H]2C)c1 (single isomer, unassigned) [WX-133]	17
COc1cncc(N2CCN(C3=Nc4c(csc4F)[C@@H](CC(=O)O)N3c3cc(C(F)(F)F)ccc3OC)C[C@H]2C)c1 (single isomer, unassigned) [WX-134]	> 1000
COc1cccc(N2CCN(C3=Nc4ccsc4[C@@H](CC(=O)O)N3c3cc(C(F)(F)F)ccc3OC)C[C@H]2C)c1 (single isomer, unassigned) [WX-135]	941
COc1cncc(N2CCN(C3=Nc4ccsc4[C@H](CC(=O)O)N3c3cc(C(F)(F)F)ccc3OC)C[C@H]2C)c1 (single isomer, unassigned) [WX-137]	31
COc1cncc(N2CCN(C3=Nc4ccsc4[C@@H](CC(=O)O)N3c3cc(C(F)(F)F)ccc3OC)C[C@H]2C)c1 (single isomer, unassigned) [WX-138]	> 1000

SMILES	EC50 [nM]
COc1ccnc(N2CCN(C3=Nc4ccsc4[C@@H](CC(=O)O)N3c3cc(C(F)(F)F)ccc3OC)C[C@H]2C)c1 (single isomer, unassigned) [WX-140]	144
COc1cc(N2CCN(C3=Nc4ccsc4[C@@H](CC(=O)O)N3c3cc(C(F)(F)F)ccc3OC)C[C@H]2C)ccn1 (single isomer, unassigned) [WX-142]	56
COc1cc(N2CCN(C3=Nc4ccsc4[C@@H](CC(=O)O)N3c3cc(C(F)(F)F)ccc3OC)C[C@H]2C)ncn1 (single isomer, unassigned) [WX-144]	261
COc1ccnc(N2CCN(C3=Nc4c(csc4F)[C@@H](CC(=O)O)N3c3cc(C(F)(F)F)ccc3OC)C[C@H]2C)c1 (single isomer, unassigned) [WX-146]	352
COc1cc(N2CCN(C3=Nc4c(csc4F)[C@@H](CC(=O)O)N3c3cc(C(F)(F)F)ccc3OC)C[C@H]2C)ccn1 (single isomer, unassigned) [WX-148]	12
COc1cc(N2CCN(C3=Nc4c(csc4F)[C@@H](CC(=O)O)N3c3cc(C(F)(F)F)ccc3OC)C[C@H]2C)ncn1 (single isomer, unassigned) [WX-150]	20
COc1cc(N2[C@H](C)CN(C3=Nc4ccsc4[C@@H](CC(=O)O)N3c3cc(C(F)(F)F)ccc3OC)C[C@@H]2C)ccn1 (single isomer, unassigned) [WX-160]	44.4
CC[C@@H]1CN(C2=Nc3ccsc3[C@@H](CC(=O)O)N2c2cc(C(F)(F)F)ccc2OC)CCN1c1cccc(OC)c1 (single isomer, unassigned) [WX-169]	> 538
CC[C@@H]1CN(C2=Nc3ccsc3[C@H](CC(=O)O)N2c2cc(C(F)(F)F)ccc2OC)CCN1c1cccc(OC)c1 (single isomer, unassigned) [WX-170]	0.264
COc1cccc(N2CCN(C3=Nc4ccsc4[C@@H](CC(=O)O)N3c3cc(C(F)(F)F)ccc3OC)C[C@H]2CF)c1 (single isomer, unassigned) [WX-171]	> 10
COc1cccc(N2CCN(C3=Nc4ccsc4[C@H](CC(=O)O)N3c3cc(C(F)(F)F)ccc3OC)C[C@H]2CF)c1 (single isomer, unassigned) [WX-172]	0.099
COc1cc(N2CCN(C3=Nc4cc(C)sc4[C@H](CC(=O)O)N3c3cc(C(F)(F)F)ccc3OC)C[C@H]2C)ccn1 (single isomer, unassigned) [WX-173]	0.849
COc1cc(N2CCN(C3=Nc4cc(C)sc4[C@@H](CC(=O)O)N3c3cc(C(F)(F)F)ccc3OC)C[C@H]2C)ccn1 (single isomer, unassigned) [WX-174]	> 10
COc1cc(N2[C@H](C)CN(C3=Nc4ccsc4[C@H](CC(=O)O)N3c3cc(C(F)(F)F)ccc3OC)C[C@H]2C)ccn1 (single isomer, unassigned) [WX-196]	1.91
COc1cc(N2[C@H](C)CN(C3=Nc4ccsc4[C@@H](CC(=O)O)N3c3cc(C(F)(F)F)ccc3OC)C[C@H]2C)ccn1 (single isomer, unassigned) [WX-197]	> 10
COc1cc(N2[C@H](C)CN(C3=Nc4cscc4[C@H](CC(=O)O)N3c3cc(C(F)(F)F)ccc3OC)C[C@@H]2C)ccn1 (single isomer, unassigned) [WX-198]	0.713
COc1cc(N2[C@H](C)CN(C3=Nc4cscc4[C@@H](CC(=O)O)N3c3cc(C(F)(F)F)ccc3OC)C[C@@H]2C)ccn1 (single isomer, unassigned) [WX-199]	> 10
COc1cc(N2CCN(C3=Nc4ccsc4[C@@H](CC(=O)O)N3c3cc(C(F)(F)F)ccc3OC)C[C@H]2C)ccc1F (single isomer, unassigned) [WX-200]	> 10
COc1cc(N2CCN(C3=Nc4ccsc4[C@H](CC(=O)O)N3c3cc(C(F)(F)F)ccc3OC)C[C@H]2C)ccc1F (single isomer, unassigned) [WX-201]	0.53
COc1cccc(N2CCN(C3=Nc4cscc4[C@@H](CC(=O)O)N3c3cc(C(F)(F)F)ccc3OC)C[C@H]2C)c1 (single isomer, unassigned) [WX-203]	> 10
COc1cccc(N2CCN(C3=Nc4cscc4[C@H](CC(=O)O)N3c3cc(C(F)(F)F)ccc3OC)C[C@H]2C)c1 (single isomer, unassigned) [WX-204]	0.172
